Experimental data taken from patent publication US11318214B2, “Iron oxide mesoporous microparticle drug carrier” (National Guard Health Affairs, priority 2020, dated 2022).

Assays:
[1] = Drug loading onto IO-MMMs (UV-vis); type: physicochemical; details: for amount of drug loaded / loading efficiency: maximal loading onto IO-MMMs; for loading efficiency: absorption spectroscopy
Procedure: 1 mL aqueous dispersion of IO-MMMs (1.0 mg/mL) and aqueous drug solutions (250 μg/mL) were gently shaken on a rotary shaker for 36 h to enable maximal drug loading. The particle dispersions were then isolated via centrifugation (4500 rpm, 10 min), washed repeatedly with water until no drug was detected in the supernatant by UV-vis, and finally redispersed in water to form stable aqueous dispersions of drug@IO-MMMs. In case of Tam and Daun loading, Tam was first loaded followed by Daun to afford Daun/Tam@IO-MMMs (165 μg/mL Tam; 235 μg/mL Daun). Loading efficiencies were determined by UV-Vis spectroscopy as depicted below. […] The loading efficiency was calculated as: Loading Efficiency=(W1/W0)×100, where W1 is the amount of drug loaded onto the particles, and W0 is the amount of drug in the initial solution. The amount of drug loaded onto IO-MMMs was calculated from the difference between the initial drug concentration and the drug concentration left in the supernatant.

[2] = In vitro drug release in PBS buffer at two pH values; type: physicochemical; details: from IO-MMM, slightly acidic pH of 4.5, after 48 h, 37° C.
Procedure: In a typical study, 5 mg of drug@IO-MMMs were suspended in 1 mL PBS buffer at two different pH values (pH=7.4 and pH=4.5) and gently rotated at 37° C. in an oven provided with a precise control in the temperature within 0.01° C. The concentration of drugs in the supernatant was determined at fixed time intervals by UV-vis spectroscopy. At specific time points, supernatant aliquots obtained by centrifugation were taken from each tube, measured and returned to their respective tubes after UV-vis measurements. The drug concentration could be directly calculated from the measured absorbance. Triplicate aliquots were run for each time interval, and average values plotted. The percent drug release was calculated using the equation below: % Drug Release=(Abs(t) of released drug/Abs(t0))×100.

[3] = estimated; cited from earlier work

Row | SMILES | amount of drug loaded [1] | loading efficiency [1] [%] | total drug released [2] | loading efficiencies depending on the initial drug concentrations used ([1]; onto IO-MMMs) | molecular size [3] [nm]
1 | COc1cccc2c1C(=O)c1c(O)c3c(c(O)c1C2=O)C[C@@](O)(C(C)=O)C[C@@H]3O[C@H]1C[C@H](N)[C@H](O)[C@H](C)O1 [Daun, Daunorubicin] | ≤ 235 μg/mg of particles | ≤ 94 | ~50% |  | 
2 | CC/C(=C(\c1ccccc1)c1ccc(OCCN(C)C)cc1)c1ccccc1 [Tam, Tamoxifen] | ≤ 165 μg/mg of particles | ≤ 83 | ~80% | 66-83% | 
3 | COc1cccc2c1C(=O)c1c(O)c3c(c(O)c1C2=O)C[C@@](O)(C(=O)CO)C[C@@H]3O[C@H]1C[C@H](N)[C@H](O)[C@H](C)O1 [Dox, Doxorubicin] | ≤ 227 μg/mg of particles |  | about 40% |  | ~1.37
